Source: patent US9416173B2, “Peptide and conjugate vaccines for fungal infections” (priority 2011, dated 2016)

What was measured:
[1] = test system: C. albicans strain 3153A; test: Fungal challenge and assessment of protection (disseminated candidiasis), peptide vaccines; assay type: in vivo, BALB/c mice; settings: for protection against disseminated candidiasis (survival) / viable fungal units (CFUs) in kidneys: peptide-pulsed DC vaccine; for protection against disseminated candidiasis (survival): vs DPBS or DCs+CFA controls; for viable fungal units (CFUs) in kidneys: vs controls, detection limit 50 CFU per kidney pair; for survival rate: general peptides, experiment terminated 80 days post challenge
Protocol: C. albicans 3153A and SC5314, C. krusei (ATCC 6258), C. glabrata (ATCC 2001) and Saccharomyces cerevisiae (ATCC 9463) were obtained from the American Type Culture Collection (ATCC; Manassas, Va.) and were grown as stationary-phase yeast cells in glucose-yeast extract-peptone broth at 37° C., washed and suspended to the appropriate cell concentration (5×10^6/ml) in Dulbecco's PBS (DPBS; Sigma-Aldrich, St. Louis, Mo.), and used to infect mice intravenously (i.v.) as previously described (25, 29). C. albicans strain 3153A was also used for serum antibody absorption, immunofluorescence staining and flow cytometric analysis. Unless otherwise indicated, C. albicans strain 3153A was used to challenge the mice in the examples below.
Two weeks after the second boost, immune and control mice were infected intravenously (i.v.) with a lethal dose of live C. albicans yeast cells (5×10^5 in 0.1 ml of DPBS) prepared as described above and as before (53). Passively immunized mice (below) also received the same challenge dose. Protection was evaluated by monitoring animal survival for 80-100 days. The mice were monitored 2-3 times daily for the development of a moribund state, defined as being listless, disinterested in food or water, and nonreactive to finger probing. At the time that a mouse was deemed moribund, it was sacrificed and their kidneys (for some experiments, brains) were homogenized in DPBS and plated onto a nutrient agar to determine colony forming units (CFUs). After 80-100 days, the experiments were terminated and all the survivors at that time were sacrificed and their kidneys were assessed for CFU as before. The lowest limit of detection for the CFU assay was 50 CFU per kidney pair.
Two weeks after the second boost, immune and control mice were infected i.v. with a lethal dose of live C. albicans yeast cells (5×10^5 in 0.1 ml of DPBS). Passively immunized mice also received the same challenge dose. Protection was evaluated by monitoring animal survival for up to 120 days and by quantifying the number of CFU (mean±SE) per kidney pairs. Median survival times (MST) were statistically evaluated by Kaplan-Meier (GraphPad Prism, version 4). In all analyses, there were five mice per group (n=5), and a two-tailed t test was used.

[2] = test system: anti-Fba antibodies in immune sera; test: ELISA inhibition assay with modified Fba peptides as inhibitors; assay type: binding, mice; settings: compared with original Fba inhibition curve
Protocol: The specificity of MAb E2-9 for Fba peptide was determined by an inhibition ELISA as described previously (52, 53). Briefly, Fba-MAP was dissolved in DPBS (5 μg/ml), and the solution was used to coat 96-well ELISA plates (100 μl, overnight at 4° C.). The wells were washed five times with PBST (PBS containing Tween 20, 0.05% [vol/vol] and blocked with 1% bovine serum albumin-PBST. MAb E2-9 produced as described above, was serially diluted up to 10,000 for ELISA measurements. Unless otherwise stated, the serum was diluted 1:100 dilution in DPBS to determine the content of antibody by ELISA. MAb E2-9 was mixed with Fba peptide (inhibitor) (dissolved in PBST at a concentration between 0.1 μM and 1 mM), and the resulting solution of each concentration was added to the Fba-MAP coated microtiter wells (solid phase) in triplicate and incubated at 21 to 23° C. for 2 h. Unless otherwise stated, the concentration of test antigens used to coat the wells was about 5-10 μg/ml. The wells were washed three times with PBST, and goat anti-mouse heavy chain specific for IgM was HRP-conjugated (diluted 1:10,000 in PBST) (Sigma) and 100 μl was added to the corresponding wells and incubated for 1 h at 21 to 23° C. The wells were washed five times with PBST, followed by addition of 100 μl of substrate solution (25 ml of 0.05 M phosphate-citrate buffer [pH 5.0], 200 μl of an aqueous solution of O-phenylenediamine 50 mg/ml [Sigma], and 10 μl of 30% H2O2). Color was allowed to develop for 10 min, stopped by addition of […] of 2 M H2SO4, and read at 492 nm (microtiter plate reader, model 450; Bio-Rad, Richmond, Calif.). The percent inhibition was calculated relative to wells containing antibody without inhibitor.
The specificity of anti-Fba antibodies in immune sera was tested for the modified Fba peptides as determined by ELISA inhibition assay. Peptide 1, original Fba, which was used as an inhibitor, was included as a positive control. The inhibition curve of FIG. 17 serves to compare the curves with the other modified peptides 2-11. FIGS. 18A, 18B, 18C, and 18D show the results of ELISA inhibition assays for peptide 2, peptide 3, peptide 4 and peptide 5, respectively. Each methylated peptide was used as an inhibitor in the designated assay. […] The reaction is dose-dependent for each group, indicating anti-Fba antibodies in immune sera were specific for the modified peptides. […] The binding of peptide 11, which has two extra cysteines may indicate that the binding site of Fba with antibody is located at the carboxyl part of the peptide.

[3] = test system: C. albicans; test: Immunofluorescence and flow cytometric analysis of binding to fungal cell surface; assay type: cell-based; settings: live fungal cells reacted with immune serum of peptide-immunized mice
Protocol: Distribution of the Fba peptide epitope on yeast cells was determined by indirect immunofluorescence. […] The yeast cells were suspended in the antibody preparation and incubated while shaking by rotation at room temperature (RT, 22-24° C.) for 1-2 h. After incubation, the yeast cells were washed with DPBS three times, suspended in 200 μl of fluorescein-labeled goat anti-mouse IgM (u-chain specific; Sigma) (stock solution, 1 mg/ml; working solution, 20 μg/ml of DPBS) and incubated at RT as described above for 0.5 h. The yeast cells were washed with DPBS three times and suspended in 200 μl of DPBS. The cells were observed by confocal microscopy (LSM 510, Zeiss). The distribution of the Fba peptide epitope on the yeast cell surface was compared to that obtained with yeast cells fluorescently stained for detection of the MAb B6.1 epitope. […] For flow cytometric analysis, following the last incubation, cells were washed as described above and suspended in the 500 μl DPBS buffer. Flow cytometry was performed using a BD Biosciences FACSVantage SE equipped with an argon laser excitation at 488 nm. 10,000 cells in each sample were analyzed (CellQuest Pro software).
Distribution of the β-(Man)3 and Fba peptide epitopes on yeast cells was determined by use of immune serum for flow cytometric analysis and indirect immunofluorescence. One hundred microliters of immune serum (1:100 dilution in 1% BSA/DPBS) was added to a pellet of C. albicans yeast cells (5×10^6) that was prewashed with DPBS buffer three times. The yeast cells were suspended in the immune serum [from β-(Man)3-Fba-TT immunized mice] preparation and incubated while shaking by rotation at room temperature (RT, 22-24° C.) for 1-2 h. After incubation, the yeast cells were washed with DPBS three times, suspended in 200 μl of fluorescein-labeled goat anti-mouse IgM (μ-chain specific; Sigma) (stock solution, 1 mg/ml; working solution, 20 μg/ml of DPBS) and incubated at RT described above for 0.5 h. The yeast cells were washed with DPBS three times and suspended in 500 μl of DPBS. Flow cytometry was performed using a BD Biosciences FACSVantage SE equipped with an argon laser excitation at 488 nm. 10,000 cells in each sample were analyzed (CellQuest Pro software).
For immunofluorescence assays, the fungal cells were immunostained and washed as described above and suspended in the 200 μl DPBS buffer. The cells were observed by confocal microscopy (LSM 510, Zeiss). The distribution of the β-(Man)3 and Fba peptide epitopes on the yeast cell surface was compared to that obtained with yeast cells fluorescently stained for detection of the MAb B6.1 epitope.

[4] = test system: synthetic peptides; test: ELISA antibody responses to peptide-pulsed DC vaccines; assay type: in vivo, BALB/c mice; settings: general fungal peptides, peptide-pulsed DC + CFA
Protocol: The murine dendritic cells (DCs) were pulsed in vitro with peptide candidate vaccine antigens as previously described (53). Briefly, DCs in culture were pulsed with the peptide antigen (1 μM) on day 6. On day 7, PGE2 (10^-7M) was added along with LPS (2 μg/ml, Sigma-Aldrich) for 24 h. On day 9, antigen-pulsed DCs were washed extensively and 5×10^5 in 200 μl DPBS were given intraperitoneally (i.p.) as the priming dose to mice. The mice were boosted i.p. at day 14 with fresh antigen-pulsed DCs and boosted a second time at day 28 with antigen (10 μg) emulsified in complete Freund adjuvant (CFA) given subcutaneously (s.c.).
Sera were ELISA analyzed for antibody titers. For DC-based immunization, control groups consisted of mice given DCs alone at the time of priming and first booster followed by CFA alone at the time of the second booster, or DPBS alone for all three injections. For Fba peptides administered with alum or MPL, control groups were mice given adjuvant alone or DPBS buffer. […] Synthetic Fba-MAP (GenScript) was dissolved at 5 μg/ml in PBS (pH 7.4) and used to coat 96-well ELISA plates for testing duplicate serial 2-fold dilutions of samples of each immune serum and control sera. Color development for each well was achieved by use of secondary antibody (goat anti-mouse polyvalent Ig-HRP) and substrate (O-phenylenediamine and H2O2) and OD determined at 492 nm.
FIGS. 1A-1C show the antibody responses in BALB/c mice against peptide-pulsed DC vaccines. Sera from mice immunized with the six synthetic peptide carriers presented on dendritic cells (DCs) for the priming and first booster immunizations and emulsified in complete Freund adjuvant (CFA) for the second booster were tested by ELISA for antibody responses against the peptides. Control groups consisted of mice given the same regimen for priming and boosters except that the peptides were omitted (DCs+CFA) or DPBS only was used at each injection time. […] The bars of each panel indicate means of CFUs per kidney pair for each group. The lowest limit of detection for the CFU assay is 50 CFU per kidney pair.
Sera were ELISA analyzed for antibody titers. Control groups consisted of mice given DCs alone at the time of priming and first booster followed by DPBS at the time of the second booster, DPBS for the priming and first booster and CFA alone at the time of the second booster, DPBS alone for all three injections, or DCs alone for priming and first booster followed by CFA alone at the time of the second booster. Briefly, synthetic peptides were dissolved at 10 μg/ml in PBS (pH 7.4). […] Color development for each well was achieved by secondary antibody (goat anti-mouse polyvalent immunoglobulin-HRP, Sigma) and substrate (O-phenylenediamine and H2O2) and Optical Density (OD) determined at 492 nm.

Sequence	protection against disseminated candidiasis (survival) [1]	viable fungal units (CFUs) in kidneys [1]	effect on peptide-antibody binding (ELISA inhibition, peptide as inhibitor) [2]	also measured
NRSPSTGEQKSSGI [Gap1]	neither of two other peptides Gap1, or Eno1 induced protection	slightly less fungal burden	–	–
VPLDGKTITNNQRI [Pgk1]	some protection	low or non-detectable CFUs	–	–
YGKDVKDLFDYAQE (methylated at position 2) [Pep3]	–	–	little effect on peptide-antibody binding	–
DSRGNPTVEVDFTT [Eno1]	neither of two other peptides Gap1, or Eno1 induced protection	slightly less fungal burden	–	–
PRIGGQRELKKITE [Met6]	a high degree of protection	low or even non-detectable	–	–
YGKDVKDLFDYAQE (methylated at position 1) [Pep2]	–	–	little effect on peptide-antibody binding	–
YGKDVKDLFDYAQE (methylated at positions 1 and 8) [Pep10]	–	–	bound well to antibody	–
YDQVLDLSLLFNAIP [Met6-2]	–	–	–	survival rate ([1]; DC immunization): 80%; binding of antibody in the immune serum to the peptides expressed on C. albicans cell surface (flow cytometric analysis) [3]: expressed on the fungal surface and are accessible to antibodies in immune sera; antibody responses (ELISA, plates coated with the peptide) [4]: able to induce antibody responses
YGKDVKDLFDYAQE (methylated at position 3) [Pep4]	–	–	little effect on peptide-antibody binding	–
YGKDCVKCDLFDYAQE (cysteine added at positions 5 and 8) (cysteines added at positions 5 and 8) [Pep 11]	–	–	bound well to antibody	–
QGETEEALIQKRSY [Hwp1]	a high degree of protection	low or even non-detectable	–	–
SSSTVVAAL [Fba4]	–	–	–	survival rate ([1]; DC immunization): 60%; binding of antibody in the immune serum to the peptides expressed on C. albicans cell surface (flow cytometric analysis) [3]: expressed on the fungal surface and are accessible to antibodies in immune sera; antibody responses (ELISA, plates coated with the peptide) [4]: able to induce antibody responses
FAIPAINVTSSSTV [Fba2]	–	–	–	protection (survival) vs DC+CFA control ([1]; general peptides experiment, DC immunization): failed to induce good protection; antibody responses (ELISA, plates coated with the peptide) [4]: good and specific antibody responses
YGKDVKDLFDYAQE (methylated at position 5) [Pep5]	–	–	little effect on peptide-antibody binding	–
FAIPAINVTSSSTVVAALE [Fba3]	–	–	–	survival rate ([1]; DC immunization): 80%; binding of antibody in the immune serum to the peptides expressed on C. albicans cell surface (flow cytometric analysis) [3]: expressed on the fungal surface and are accessible to antibodies in immune sera; antibody responses (ELISA, plates coated with the peptide) [4]: able to induce antibody responses
